What was measured:
Format in all cases: functional, cell-based
[1] = target: T1, Solute carrier family 22 member 2 (Homo sapiens, UniProt O15244); assay: (§1) TP_TRANSPORTER: uptake in OCT2-expressing mIMCD3 cells; conditions: mouse
T1 sequence (O15244 whole entry): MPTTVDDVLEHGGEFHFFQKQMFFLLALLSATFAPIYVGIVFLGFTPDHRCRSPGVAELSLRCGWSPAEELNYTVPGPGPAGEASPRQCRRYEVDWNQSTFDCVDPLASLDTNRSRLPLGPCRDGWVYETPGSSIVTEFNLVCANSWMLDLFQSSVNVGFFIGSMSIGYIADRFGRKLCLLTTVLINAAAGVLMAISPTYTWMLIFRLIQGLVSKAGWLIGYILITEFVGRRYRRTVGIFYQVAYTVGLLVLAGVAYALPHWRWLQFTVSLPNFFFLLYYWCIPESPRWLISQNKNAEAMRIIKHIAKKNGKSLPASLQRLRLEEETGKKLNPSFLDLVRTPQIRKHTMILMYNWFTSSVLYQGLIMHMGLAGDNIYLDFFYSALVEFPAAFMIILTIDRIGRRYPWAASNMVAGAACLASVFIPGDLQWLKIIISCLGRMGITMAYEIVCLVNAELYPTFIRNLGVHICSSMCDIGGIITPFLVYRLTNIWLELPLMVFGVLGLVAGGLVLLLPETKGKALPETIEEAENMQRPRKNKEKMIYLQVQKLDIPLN

[2] = target: T1, Solute carrier family 22 member 2; assay: TP_TRANSPORTER: inhibition of cimetidine uptake (Cimetidine: 100 uM, Metoprolol: 1000 uM) in OCT2-expressing mIMCD3 cells; conditions: mouse, mimcd3, 1000 µM
[3] = target: T1, Solute carrier family 22 member 2; assay: TP_TRANSPORTER: inhibition of cimetidine uptake (Cimetidine: 100 uM, Propranolol: 1000 uM) in OCT2-expressing mIMCD3 cells; conditions: mouse, mimcd3, 1000 µM
[4] = substrate: C[n+]1ccc(-c2ccccc2)cc1; assay: as §1

Molecule: CN/C(=N/CCSCc1nc[nH]c1C)NC#N [CIMETIDINE]
- Activity [1]: substrate [+]

Molecule: COCCc1ccc(OCC(O)CNC(C)C)cc1 (stereo not given) [METOPROLOL]
- Activity [2]: inhibitor [(at a rough estimate) 30 % of control]

Molecule: CC(C)NCC(O)COc1cccc2ccccc12 (stereo not given) [PROPRANOLOL]
- Activity [1]: substrate [+]
- Activity [3]: inhibitor [(at a rough estimate) 10 % of control]

B1: Solute carrier family 22 member 2 (Homo sapiens) (protein)
chain: T1 sequence (O15244 whole entry)
- Km [4]: 22.2 µM

— ChEMBL document CHEMBL2074073, “The organic cation transporter OCT2 mediates the uptake of beta-adrenoceptor antagonists across the apical membrane of renal LLC-PK(1) cell monolayers” (Br J Pharmacol, 2000)
